Entries after “also recorded” stand apart in the source; their conditions may differ.
What was measured:
Assay type in all cases: cell-based
[1] = tested on: human Isl1+ primordial progenitors; test: Differentiation of human Isl1+ primordial progenitors along vasculargenic lineages into Isl1+/CD31+ cells (FACS with anti-CD31); details: for increase of human Isl1+/CD31+ (GFP+/CD31+) cells: VEGF D4-D22 or ALK5 inhibitor D7-D22, compared to absence of the agent; for proportion of Isl1−/CD31+ cells: human ES cells
Excerpt: When Isl1+ is expressed in this ES cell line, the cells co-express GFP.

mouse Isl1+ cells = test: Vasculargenic commitment of mouse ES cells into mouse Isl1+/CD31+ cells (FACS with anti-CD31); details: for proportion of Isl1−/CD31+ cells: mouse ES cells; for vasculargenic commitment / differentiation into Isl1+/CD31+ cells (in words): mouse cells
[2] = tested on: human ISL1-βgeo BAC transgenic cells; test: Expansion of hES cell-derived ISL1+ clones on mouse CMC feeders with BIO
Method: FIGS. 9A-9B show the expansion and characterization of hES cell-derived ISL1+ cardiac progenitors. FIG. 9A show ISL1+ cells increased by BIO treatment. Day 6 EBs of human ISL1-βgeo BAC transgenic cells were dissociated and cultured on mouse CMC feeders for two days before treated with and without BIO for another five days. Colonies were stained with anti-ISL1 antibody and counted for ISL1+ ones. […] Cells dissociated from day 7 EBs of human ISL1-cre DsRed cells were plated on Wnt3a-secreting feeders, cultured for five days and FACS isolated. Gene expression of DsRed+ cells was compared with DsRed− cells. Bars represent mean±s.d.; n=3.
Canonical Wnt pathways can promote the expansion of Isl1+ cardiac progenitors in the mouse^18-20. […] The inventors then isolated human ISL1-cre DsRed cells from day 7 EBs, which were dissociated and plated on a plastic surface, MEF, Wnt3a-secreting, or L cell feeders.

Compound	increase of human Isl1+/CD31+ (GFP+/CD31+) cells [1]	increase of human Isl1+/CD31+ (GFP+/CD31+) cells ([1]; listed as ALK5i)	proportion of Isl1−/CD31+ cells [1]	vasculargenic commitment / differentiation into human Isl1+/CD31+ cells (in words) [1]	vasculargenic commitment / differentiation into human Isl1+/CD31+ cells (in words) ([1]; listed as ALK5i)	overall human Isl1+ (GFP+) population ([1]; prolonged treatment)	proportion of Isl1−/CD31+ cells (mouse Isl1+ cells)	vasculargenic commitment / differentiation into Isl1+/CD31+ cells (in words) (mouse Isl1+ cells)	vasculargenic commitment / differentiation into Isl1+/CD31+ cells (in words) (mouse Isl1+ cells; listed as ALK5i)	ISL1+ cells (in words) ([2]; BIO for five days on mouse CMC feeders)	increase of human ISL1+ clones ([2]; compared to CMC control)	vessel-like structures in vitro ([1]; VEGF treatment)	vessel-like structures (mouse Isl1+ cells; Isl1+ (YFP+) cells sorted at D8, cultured with VEGF until D20)	increase of efficiency of differentiation into Isl1+/CD31+ cells (mouse Isl1+ cells; mouse Isl1+ cells, VEGF about 2 weeks from D4)
NC(=O)c1ccc(-c2nc(-c3ccc4c(c3)OCO4)c(-c3ccccn3)[nH]2)cc1 [SB431542, 4-[4-(1,3-Benzodioxol-5-yl)-5-(2-pyridinyl)-1H-imidazol-2-yl]-benzamide]	4-5 fold	4 to 5 fold	increases the proportion of Isl1−/CD31+ cells	increases the efficiency of differentiation	promotes the vasculargenic commitment	reduced the overall human Isl1+ (GFP+) population	increases the proportion of Isl1−/CD31+ cells	increases the efficiency of differentiation	promotes the vasculargenic commitment					
O=C1Nc2cc(Br)ccc2/C1=C1/Nc2ccccc2/C1=N\O [BIO, 6-bromoindirubin-3′-oxime]										increased	over 30%			
VEGF			increases the proportion of Isl1−/CD31+ cells	promotes the vasculargenic commitment			increases the proportion of Isl1−/CD31+ cells	promotes the vasculargenic commitment; also recorded: increases efficiency of differentiation				produced vessel-like structures in vitro	demonstrated vessel-like structures	at least 2 fold

Reference: patent publication US8765117B2, “Generation of vascularized human heart tissue and uses thereof” (The General Hospital Corporation, priority 2009, dated 2014)
